These results are taken from paper PMC2952885 (ChemMedChem, 2009).

This test has as its target PDE7A1 catalytic domain (residues 130–482) (Homo sapiens, UniProt Q13946). In words: [3H]cAMP hydrolysis radioassay. Format: biochemical.

Sequence of PDE7A1 catalytic domain (residues 130–482) (Q13946 130-482): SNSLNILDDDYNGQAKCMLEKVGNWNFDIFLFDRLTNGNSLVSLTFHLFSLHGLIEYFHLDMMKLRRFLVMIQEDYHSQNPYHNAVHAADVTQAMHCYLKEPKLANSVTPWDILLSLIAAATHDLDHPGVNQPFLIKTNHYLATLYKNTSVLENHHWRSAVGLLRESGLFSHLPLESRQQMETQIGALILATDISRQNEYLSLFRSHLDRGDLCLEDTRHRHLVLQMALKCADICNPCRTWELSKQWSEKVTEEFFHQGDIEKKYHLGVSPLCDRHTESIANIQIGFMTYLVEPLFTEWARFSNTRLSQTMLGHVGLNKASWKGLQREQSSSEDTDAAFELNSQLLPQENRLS

Consider `CC(C)Cn1c(=O)n(C)c(=O)c2[nH]cnc21` [IBMX, reference compound], for which inhibition was half-maximal at 8.1 ± 0.4 µM (IC50).

Molecule `COc1ccc(C2CNC(=O)C2)cc1OC1CCCC1` (centres unmarked) [Rolipram, reference compound] had an IC50 of 129 ± 10 µM.

Turning to `CSc1nc2ccsc2c(=O)n1-c1ccccc1` [compound 35, 2-Methylthio-4-oxo-3-phenyl-3,4-dihydrothieno[3,2-d]pyrimidine], the IC50 is ~10 µM.

Turning to `CSc1nc2ccsc2c(=O)n1-c1c(F)cccc1F` [compound 36, 3-(2,6-Difluorophenyl)-2-methylthio-4-oxo-3,4-dihydrothieno-[3,2-d]pyrimidine], the concentration for half-maximal inhibition (IC50) turned out to be 0.8 ± 0.2 µM.

In turn, `CSc1nc2c(sc3ccccc32)c(=O)n1-c1c(F)cccc1F` [compound 39, 3-(2,6-Difluorophenyl)-2-methylthio-4-oxo-3,4-dihydrobenzo-[4,5]thieno[3,2-d]pyrimidine] yielded an IC50 of 0.41 ± 0.03 µM.

What is called IC50 is the point on the concentration scale where inhibition reaches its midpoint.
